According to patent publication US20020045669A1, “Anti-arrhythmic composition and methods of treatment” (priority 2000, published 2002):
“Also recorded” adds a separate entry of the source.

How the values were obtained:
[1] = test system: DOCA/saline pre-treated rats challenged with isoproterenol; experiment: Prevention of isoproterenol-induced arrhythmia and mortality in DOCA/saline pre-treated rats; assay type: in vivo, rat; details: for % SURVIVAL / ARRHYTHMIA (number of animals): 20 min before isoproterenol 150 μg/kg s.c.
Method: Briefly, rats were anesthetized with sodium pentobarbital (55 mg/kg. i.p.), and a 25 mg pellet of desoxycorticosterone acetate (DOCA) was implanted s.c. in the axillary region. The rats were allowed to recover from the anesthetic and returned to their home cages. The animals were given commercial rat chow and a 1% solution of saline as their drinking fluid ad libitum. The animals were maintained on this regimen for approximately thirty days.
Twenty minutes later, the rats were challenged with a single s.c. dose of isoproterenol, 150 μg/kg. The animals were closely monitored for one hour and any obvious arrhythmic episodes or mortalities were recorded.
(§1) Two kinds of anti-arrhythmic experiments were carried out, both prophylaxis and reversal studies. DOCA-treated animals were either first given the test compounds s.c. followed twenty minutes later by isoproterenol (prevention studies) or isoproterenol followed by the test compound given intravenously after five minutes (reversal studies). The time frames were chosen based on two issues: previous experience with the pharmacokinetics of polyamine analogues and the time required for isoproterenol to induce cardiac abnormalities and death in DOCA-treated rodents.

[2] = test system: DOCA/saline pre-treated rats; experiment: Evaluation of blood pressure, heart rate and EKG in DOCA/saline rats; assay type: in vivo, rat; details: continuous monitoring, compound given s.c.
Method: Blood pressure and heart rate parameters, as well as an EKG, were evaluated for compounds displaying anti-arrhythmic properties. The animals were implanted with DOCA and maintained on 1% saline as their drinking fluid as discussed above. The animals were anesthetized with Avertin (tribromoethanol, 2.5%), 1 ml/100 g given i.p. and prepared for the recording of blood pressure and the EKG. To allow for the direct measurement of blood pressure, the animals's left carotid artery was cannulated with PE-50 tubing. The tubing was filled with saline and exteriorized dorsally between the animal's shoulders.
After the surgery was completed, the catheter in the carotid artery was connected to a blood pressure transducer (ADInstruments, Inc., Milford, Mass.). To allow for the recording of the EKG, 22 gauge needles were placed s.c. at the rat's left shoulder, right shoulder and left leg. The needles were then attached via alligator clips to a MacLab Bio Amplifier (ADInstruments, Inc., Milford, Mass.). […] A baseline blood pressure, heart rate and EKG were obtained, and the compound under investigation was administered s.c. Twenty minutes later, the animals were challenged with a single dose of isoproterenol, 150 μg/kg s.c. Continuous blood pressure, heart rate and EKG readings were obtained. […]

[3] = test system: DOCA/saline pre-treated rats with isoproterenol-induced arrhythmia; experiment: Arrhythmic reversal studies (established isoproterenol arrhythmia); assay type: in vivo, rat; details: i.v. bolus at one-half of the effective s.c. dose, five minutes after isoproterenol
Method: The animals were implanted with a 25 mg pellet of DOCA and maintained on the 1% saline as their drinking fluid as discussed above. The animals were anesthetized with Avertin and prepared for the recording of blood pressure and the EKG. In addition, the animal's left jugular vein was also cannulated with PE-50 tubing. The tubings were filled with saline and exteriorized dorsally between the animal's shoulders. Isoproterenol was administered s.c. at a dose of 150 μg/kg and an arrhythmia was allowed to develop for five minutes. […] Continuous blood pressure, heart rate and EKG readings were obtained. Additional Avertin was given as needed to maintain anesthesia. The hearts of the animals were perfused with buffered formalin immediately after the onset of ventricular fibrillation or one hour after the administration of isoproterenol.
as §1

normotensive rats = details: earlier results; cited from earlier work
[4] = test system: mice exposed to deep chloroform anesthesia; experiment: Chloroform anesthesia-induced cardiac arrhythmia (Lawson procedure); assay type: in vivo; details: 100 mg/kg i.p., thirty minutes before chloroform; observed 15 minutes; <2 of three = significant protection
Method: In this procedure [Lawson, J. Pharmacol. Exer. Therap., Vol. 160, pages 22-31 (1968)], the test substance [diethylhomospermine (DEHSPM)] is administered i.p. (100 mg/kg) to a group of three mice thirty minutes before exposure to deep chloroform anesthesia and observed during the ensuing 15-minute period.

[5] = DOCA/isoproterenol-treated rats, prophylaxis

SMILES | effect on survival / activity in the model (in words) [1, 5] | % SURVIVAL ([1]; dose 115 μmol/kg s.c.) [%] | ARRHYTHMIA (number of animals) ([1]; dose 115 μmol/kg s.c.) | anti-arrhythmic properties (in words) [1, 5] | also measured
C(CNC1CCNCC1)CNC1CCNCC1 [PIP(3,3,3)] | nor was it found to be active in this model | 0 | 5 |  | 
c1cc(NCCCNc2ccncc2)ccn1 [PYR(3,3,3)] |  | 100 | 2 | presented with anti-arrhythmic properties; also recorded: performed best | % SURVIVAL ([1]; dose 14 μmol/kg s.c.): 40%; ARRHYTHMIA (number of animals) ([1]; dose 14 μmol/kg s.c.): 5; % SURVIVAL ([1]; dose 28 μmol/kg s.c.): 40%; ARRHYTHMIA (number of animals) ([1]; dose 28 μmol/kg s.c.): 5; % SURVIVAL ([1]; dose 59 μmol/kg s.c.): 60%; ARRHYTHMIA (number of animals) ([1]; dose 59 μmol/kg s.c.): 4; effects on blood pressure and heart rate [2]: No appreciable effects on blood pressure and heart rate; EKG pattern after treatment in reversal experiment [3]: reverted to a normal appearance; evidence of ischemia in EKG in reversal experiment [3]: little to no evidence of ischemia
CCNCCCNCCCCNCCCNCC [DESPM(3,4,3), diethylspermine] | none of the three polyamine anti-metabolites tested in this model had any effects on the survival | 0 | 5 |  | 
CCNCCCCCCCCCNCC [DE(9), C2H5—NH—(CH2)9—NH—C2H5] | no activity | 0 | 5 |  | 
CCNCCCNCCCNCCCNCC [DENSPM(3,3,3), diethylnorspermine] | none of the three polyamine anti-metabolites tested in this model had any effects on the survival |  |  |  | % SURVIVAL ([1]; dose 231 μmol/kg s.c.): 0%; ARRHYTHMIA (number of animals) ([1]; dose 231 μmol/kg s.c.): 5; effect on blood pressure (normotensive rats): lower blood pressure
c1cc(NCCCCNc2ccncc2)ccn1 [PYR(3,4,3)] |  | 60 | 2 | presented with anti-arrhythmic properties | % SURVIVAL ([1]; dose 59 μmol/kg s.c.): 60%; ARRHYTHMIA (number of animals) ([1]; dose 59 μmol/kg s.c.): 2; % SURVIVAL ([1]; dose 231 μmol/kg s.c.): 80%; ARRHYTHMIA (number of animals) ([1]; dose 231 μmol/kg s.c.): 2
FC(F)(F)CNCCCNCCCCNCCCNCC(F)(F)F [FDESPM, Di-β,β,β-trifluoroethylspermine] |  | 40 | 7 | some anti-arrhythmic prophylactic behavior | animals surviving ([1]; DOCA/isoproterenol-treated rats, prophylaxis, dose not given): 40%
NCCCCN [Putrescine(4), Putrescine, reference compound] | no effect on survival | 0 | 5 |  | % SURVIVAL ([1]; dose 1240 μmol/kg s.c.): 0%; ARRHYTHMIA (number of animals) ([1]; dose 1240 μmol/kg s.c.): 5; % SURVIVAL ([1]; dose 1861 μmol/kg s.c.): 0%; ARRHYTHMIA (number of animals) ([1]; dose 1861 μmol/kg s.c.): 5
c1cc(CNCCCCNCc2ccncc2)ccn1 [PYR(4,4,4)] |  | 0 | 5 | presented with anti-arrhythmic properties | % SURVIVAL ([1]; dose 231 μmol/kg s.c.): 40%; ARRHYTHMIA (number of animals) ([1]; dose 231 μmol/kg s.c.): 2
CCNCCCCNCCCCNCCCCNCC [DEHSPM(4,4,4), diethylhomospermine] | none of the three polyamine anti-metabolites tested in this model had any effects on the survival | 0 | 5 |  | animals exhibiting cardiac arrhythmia (of three mice) [4]: one; effect on blood pressure (normotensive rats): lower blood pressure
CC(C)NCC(O)COc1cccc2ccccc12 (racemic) [Propranolol, d,l-propranolol] |  |  |  |  | EKG pattern after treatment in reversal experiment [3]: reverted to a more normal pattern; evidence of ischemia in EKG in reversal experiment [3]: some evidence of ischemia; survival in reversal experiment [3]: survived
